{
  "source": "patent US9603367B2",
  "about": "“Pesticidal mixtures including spiroheterocyclic pyrrolidine diones” (priority 2012, dated 2017)",
  "key": {"[1]": {"test_system": "Tetranychus urticae (Two-Spotted Spider Mite)", "assay": "Tetranychus urticae (Two-Spotted Spider Mite) feeding/contact activity, preventive; sprayed bean leaf discs", "type": "in vivo", "details": "Pirimicarb alone", "description": "(§1) A synergistic effect exists whenever the action of an active ingredient combination is greater than the sum of the actions of the individual components.\n(§2) The action to be expected E for a given active ingredient combination obeys the so-called COLBY formula and can be calculated as follows (COLBY, S. R. “Calculating synergistic and antagonistic responses of herbicide combination”. Weeds, Vol. 15, pages 20-22; 1967): […]\n(§3) ppm=milligrams of active ingredient (=a.i.) per liter of spray mixture\n(§4) X=% action by active ingredient A) using p ppm of active ingredient\n(§5) Y=% action by active ingredient B) using q ppm of active ingredient.\n(§6) According to COLBY, the expected (additive) action of active ingredients A)+B) using p+q ppm of active ingredient is If the action actually observed (O) is greater than the expected action (E), then the action of the combination is super-additive, i.e. there is a synergistic effect. In mathematical terms the synergism factor SF corresponds to O/E. In the agricultural practice an SF of ≧1.2 indicates significant improvement over the purely complementary addition of activities (expected activity), while an SF of ≦0.9 in the practical application routine signals a loss of activity compared to the expected activity.\nTetranychus urticae (Two-Spotted Spider Mite): feeding/contact activity, preventive\nBean leaf discs on agar in 24-well microtiter plates were sprayed with the DMSO test solutions of certain Mixtures (as provided by Table 45). After drying, the leaf discs were infested with mite populations of mixed ages. 8 days later, discs were checked for mortality against mobile stages."}, "[2]": {"test_system": "Myzus persicae (Green Peach Aphid)", "assay": "Myzus persicae (Green Peach Aphid) feeding/residual contact activity, preventive; sprayed sunflower leaf discs", "type": "in vivo", "details": "Pirimicarb alone", "description": "as §1, §2, §3, §4, §5, §6\nMyzus persicae (Green Peach Aphid): feeding/residual contact activity, preventive\nSunflower leaf discs were placed on agar in a 24-well microtiter plate and sprayed with the DMSO test solutions of Mixtures (as provided by Table 45). After drying, the leaf discs were infested with an aphid population of mixed ages. After an incubation period of 6 DAT (days after treatment), samples were checked for mortality."}},
  "data": [
    {"smiles": "Cc1nc(N(C)C)nc(OC(=O)N(C)C)c1C", "note": "[Pirimicarb]", "values": [
      {"measurement": "AVERAGE DEAD IN % AFTER 8 DAYS, Pirimicarb", "setting": "[1]; 25 PPM AI, mobile stages", "result": 0, "unit": "%"},
      {"measurement": "AVERAGE DEAD IN % AFTER 8 DAYS, Pirimicarb", "setting": "[1]; 50 PPM AI, mobile stages", "result": 0, "unit": "%"},
      {"measurement": "AVERAGE DEAD IN % AFTER 8 DAYS, Pirimicarb", "setting": "[1]; 100 PPM AI, mobile stages", "result": 0, "unit": "%"},
      {"measurement": "AVERAGE DEAD IN % AFTER 8 DAYS, Pirimicarb", "setting": "[1]; 200 PPM AI, mobile stages (Table 48)", "result": 0, "unit": "%"},
      {"measurement": "AVERAGE DEAD IN % AFTER 8 DAYS, Pirimicarb", "setting": "[1]; 200 PPM AI, mobile stages (Table 49)", "result": 0, "unit": "%"},
      {"measurement": "AVERAGE DEAD IN % AFTER 8 DAYS, Pirimicarb", "setting": "[1]; 400 PPM AI, mobile stages", "result": 0, "unit": "%"},
      {"measurement": "AVERAGE DEAD IN % AFTER 6 DAYS, Pirimicarb", "setting": "[2]; 12.5 PPM AI, 6 DAT", "result": 0, "unit": "%"},
      {"measurement": "AVERAGE DEAD IN % AFTER 6 DAYS, Pirimicarb", "setting": "[2]; 25 PPM AI, 6 DAT", "result": 17.5, "unit": "%"},
      {"measurement": "AVERAGE DEAD IN % AFTER 6 DAYS, Pirimicarb", "setting": "[2]; 25 PPM AI, 6 DAT (Table 47)", "result": 17.5, "unit": "%"},
      {"measurement": "AVERAGE DEAD IN % AFTER 6 DAYS, Pirimicarb", "setting": "[2]; 50 PPM AI, 6 DAT", "result": 65, "unit": "%"},
      {"measurement": "AVERAGE DEAD IN % AFTER 6 DAYS, Pirimicarb", "setting": "[2]; 100 PPM AI, 6 DAT", "result": 87.5, "unit": "%"},
      {"measurement": "AVERAGE DEAD IN % AFTER 6 DAYS, Pirimicarb", "setting": "[2]; 200 PPM AI, 6 DAT", "result": 100, "unit": "%"}
    ]}
  ]
}
